# Source: ChEMBL document CHEMBL5226380, “O-Alkylazoxymycins A-F, Naturally Occurring Azoxy-Aromatic Compounds from Streptomyces sp. Py50” (2023)
# Counter-ions that a name gives are not always drawn.
# System: Epidermophyton floccosum
# Assay: Antifungal activity against Epidermophyton floccosum assessed as inhibition of fungal growth incubated for 24 hrs
# Type: functional
row,MIC50,SMILES
1,0.003 µM,CN(C/C=C/C#CC(C)(C)C)Cc1cccc2ccccc12 [TERBINAFINE HYDROCHLORIDE]
2,51.2 µM,O=C(O)CCCCCCc1ccccc1/N=[N+](\[O-])c1ccccc1CCCCCCC(=O)O
3,10.1 µM,O=C(O)CCCCCCc1ccccc1/[N+]([O-])=N/c1ccccc1CCCCC(=O)O
4,23.1 µM,O=C(O)CCCCCCc1ccccc1/N=[N+](\[O-])c1ccccc1CCCCC(=O)O
